Our source for the Km values is article PMC2546511 (Journal of Molecular Biology, 2007).

SMILES strings stand for the structures.

The assay concerns the target FliI ATPase (FliI^WT) (Salmonella enterica, UniProt P26465). The note with it: in the presence of phospholipids; triplicate assays.

FliI ATPase (FliI^WT), sequence (P26465 whole entry): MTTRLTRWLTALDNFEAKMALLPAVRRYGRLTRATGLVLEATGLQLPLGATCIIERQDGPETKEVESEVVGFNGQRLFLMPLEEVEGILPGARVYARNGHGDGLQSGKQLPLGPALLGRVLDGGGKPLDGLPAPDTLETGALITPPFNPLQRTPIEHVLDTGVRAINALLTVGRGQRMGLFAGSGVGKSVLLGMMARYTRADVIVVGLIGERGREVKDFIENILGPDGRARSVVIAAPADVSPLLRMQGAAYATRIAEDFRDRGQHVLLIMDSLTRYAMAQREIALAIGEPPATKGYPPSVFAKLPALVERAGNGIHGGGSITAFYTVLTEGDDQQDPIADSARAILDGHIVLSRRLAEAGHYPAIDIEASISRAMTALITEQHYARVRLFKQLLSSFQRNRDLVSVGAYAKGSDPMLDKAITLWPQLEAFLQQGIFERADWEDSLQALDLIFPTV

For `Nc1ncnc2c1ncn2[C@@H]1O[C@H](COP(=O)(O)OP(=O)(O)OP(=O)(O)O)[C@@H](O)[C@H]1O` [ATP], the Km was 1 ± 15% mM.
